Reference: ChEMBL document CHEMBL5223155, “Design, synthesis, and evaluation of pyrido.[3,4-b]pyrazin-2(1H)-one derivatives as potent FLT3 inhibitors” (Bioorg Med Chem, 2023)
The source made the active and inactive calls. No cut-off for these calls is given here.

Key:
MV4-11 = experiment: cells; conditions: Homo sapiens, MV4-11, 72 h
Description: Antiproliferative activity against human MV4-11 cells assessed as inhibition of cell growth incubated for 72 hrs by MTS assay

[1] = biological target: T1, Receptor-type tyrosine-protein kinase FLT3 (Homo sapiens, UniProt P36888)
T1 sequence (P36888 whole entry): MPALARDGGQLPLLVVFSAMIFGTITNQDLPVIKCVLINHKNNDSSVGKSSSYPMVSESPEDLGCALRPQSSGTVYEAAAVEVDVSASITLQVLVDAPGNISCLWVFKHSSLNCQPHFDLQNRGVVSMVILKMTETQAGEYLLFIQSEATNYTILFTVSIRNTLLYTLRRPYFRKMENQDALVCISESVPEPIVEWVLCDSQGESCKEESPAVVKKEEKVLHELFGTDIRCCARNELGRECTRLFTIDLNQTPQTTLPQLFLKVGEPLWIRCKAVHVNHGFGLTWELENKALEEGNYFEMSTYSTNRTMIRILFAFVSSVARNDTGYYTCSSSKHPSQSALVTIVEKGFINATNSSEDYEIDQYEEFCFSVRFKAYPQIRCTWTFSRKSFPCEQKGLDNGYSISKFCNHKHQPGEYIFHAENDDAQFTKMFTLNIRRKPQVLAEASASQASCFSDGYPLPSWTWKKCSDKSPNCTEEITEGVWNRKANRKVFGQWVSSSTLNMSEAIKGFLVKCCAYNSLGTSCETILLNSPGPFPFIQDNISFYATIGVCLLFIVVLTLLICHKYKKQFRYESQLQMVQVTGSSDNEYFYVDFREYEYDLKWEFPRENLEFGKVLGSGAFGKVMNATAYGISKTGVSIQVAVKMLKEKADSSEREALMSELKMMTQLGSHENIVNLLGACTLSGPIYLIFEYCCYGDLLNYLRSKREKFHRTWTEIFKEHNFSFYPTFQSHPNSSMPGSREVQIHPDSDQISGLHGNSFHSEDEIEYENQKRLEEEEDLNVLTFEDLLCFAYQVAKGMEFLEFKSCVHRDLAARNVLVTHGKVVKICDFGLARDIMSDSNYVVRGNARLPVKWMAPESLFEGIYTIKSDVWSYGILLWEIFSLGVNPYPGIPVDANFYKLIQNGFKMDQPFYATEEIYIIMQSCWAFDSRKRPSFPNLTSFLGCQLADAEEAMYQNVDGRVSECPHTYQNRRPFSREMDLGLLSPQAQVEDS
Description: Inhibition of human wild type FLT3 using TK peptide as substrate incubated for 1 hr in presence of ATP by HTRF assay

MOLM-13 = experiment: Antiproliferative activity against human MOLM-13 cells assessed as inhibition of cell growth incubated for 72 hrs by MTS assay; format: functional, cell-based; conditions: MOLM-13, 72 h
[2] = biological target: Receptor-type tyrosine-protein kinase FLT3 (Homo sapiens, UniProt P36888, D835Y)
Description: Inhibition of human FLT3 D835Y mutant using TK peptide as substrate incubated for 1 hr in presence of ATP by HTRF assay

BaF3 [3] = experiment: cells; conditions: Mus musculus, BaF3, 72 h
Description: Antiproliferative activity against mouse BaF3 cells harboring FLT3-D835F mutant assessed as inhibition of cell growth incubated for 72 hrs by MTS assay

BaF3 [4] = experiment: cells; conditions: Mus musculus, BaF3, 72 h; remark: listed apart in the source
Description: Antiproliferative activity against mouse BaF3 cells harboring FLT3-D835V mutant assessed as inhibition of cell growth incubated for 72 hrs by MTS assay

BaF3 [5] = experiment: cells; conditions: Mus musculus, BaF3, 72 h; remark: listed apart in the source
Description: Antiproliferative activity against mouse BaF3 cells harboring FLT3-ITD mutant assessed as inhibition of cell growth incubated for 72 hrs by MTS assay

BaF3 [6] = experiment: cells; conditions: Mus musculus, BaF3, 72 h; remark: listed apart in the source
Description: Antiproliferative activity against mouse BaF3 cells harboring FLT3-F691L mutant assessed as inhibition of cell growth incubated for 72 hrs by MTS assay

BaF3 [7] = experiment: cells; conditions: Mus musculus, BaF3, 72 h; remark: listed apart in the source
Description: Antiproliferative activity against mouse BaF3 cells harboring FLT3-ITD/D835Y mutant assessed as inhibition of cell growth incubated for 72 hrs by MTS assay

MM1.S = experiment: Antiproliferative activity against human MM1.S cells assessed as inhibition of cell growth incubated for 72 hrs by MTS assay; format: functional, cell-based
HCC1954 = experiment: Antiproliferative activity against human HCC1954 cells assessed as inhibition of cell growth incubated for 72 hrs by MTS assay; format: functional, cell-based; conditions: HCC1954, 72 h
[8] = biological target: Receptor-type tyrosine-protein kinase FLT3 (Homo sapiens) (UniProt P36888); experiment: Inhibition of FLT3 in human MV4-11 cells assessed as reduction in FLT3 autophosphorylation at Tyr589/591 at 10 to 1000 nM by Western blotting analysis; format: cell-based; conditions: dose 10-1000 nM
WI-38 = experiment: Antiproliferative activity against human WI-38 cells assessed as inhibition of cell growth incubated for 72 hrs by MTS assay; format: functional, cell-based; conditions: WI-38, 72 h
[9] = biological target: Receptor-type tyrosine-protein kinase FLT3 (Homo sapiens) (UniProt P36888); experiment: Inhibition of FLT3 in human MV4-11 cells assessed as reduction in AKT phosphorylation by Western blotting analysis; format: cell-based; conditions: dose 10-1000 nM
[10] = Metabolic stability in ICR/CD mouse liver microsomes assessed as compound remaining at 100 uM preincubated with NADPH for 5 mins followed by compound addition and measured upto 90 mins by LC-MS/MS method; format: ADME, Microsome; conditions: time < 95 min, read-out: Stability
[11] = Antiproliferative activity against human PBMCs assessed as inhibition of cell growth incubated for 72 hrs by MTS assay; format: toxicity, cell-based, PBMC
[12] = biological target: Receptor-type tyrosine-protein kinase FLT3 (Homo sapiens) (UniProt P36888); experiment: Inhibition of FLT3 in human MV4-11 cells assessed as reduction in ERK phosphorylation at 100 nM by Western blotting analysis; format: cell-based
KG-1 = experiment: Antiproliferative activity against human KG-1 cells assessed as inhibition of cell growth incubated for 72 hrs by MTS assay; format: functional, cell-based; conditions: KG-1, 72 h
Rec1 = experiment: Antiproliferative activity against human REC1 cells assessed as inhibition of cell growth incubated for 72 hrs by MTS assay; format: functional, cell-based; conditions: Rec1, 72 h
[13] = biological target: Receptor-type tyrosine-protein kinase FLT3 (Homo sapiens) (UniProt P36888); experiment: Inhibition of FLT3 in human MV4-11 cells assessed as reduction in STAT5 phosphorylation by Western blotting analysis; format: cell-based; conditions: dose 10-1000 nM
[14] = biological target: Receptor-type tyrosine-protein kinase FLT3 (Homo sapiens) (UniProt P36888); experiment: Inhibition of FLT3 in human MV4-11 cells assessed as reduction in ERK phosphorylation by Western blotting analysis; format: cell-based; conditions: dose 10-1000 nM
MOLT-4 = experiment: Antiproliferative activity against human MOLT-4 cells assessed as inhibition of cell growth incubated for 72 hrs by MTS assay; format: functional, cell-based; conditions: MOLT-4, 72 h
[15] = Antiproliferative activity against human MINO cells assessed as inhibition of cell growth incubated for 72 hrs by MTS assay; format: functional, cell-based
[16] = biological target: Receptor-type tyrosine-protein kinase FLT3 (Homo sapiens) (UniProt P36888); experiment: Inhibition of FLT3 in human MV4-11 cells assessed as reduction in STAT5 phosphorylation at 100 nM by Western blotting analysis; format: cell-based
JeKo-1 = experiment: Antiproliferative activity against human JeKo-1 cells assessed as inhibition of cell growth incubated for 72 hrs by MTS assay; format: functional, cell-based; conditions: JeKo-1, 72 h
HL-60 = experiment: Antiproliferative activity against human HL-60 cells assessed as inhibition of cell growth incubated for 72 hrs by MTS assay; format: functional, cell-based; conditions: HL-60, 72 h
RS4-11 = experiment: Antiproliferative activity against human RS4-11 cells assessed as inhibition of cell growth incubated for 72 hrs by MTS assay; format: functional, cell-based; conditions: RS4-11, 72 h
Z-138 = experiment: Antiproliferative activity against human Z138 cells assessed as inhibition of cell growth incubated for 72 hrs by MTS assay; format: functional, cell-based; conditions: Z-138, 72 h
OCI-AML-3 = experiment: Antiproliferative activity against human OCI-AML-3 cells assessed as inhibition of cell growth incubated for 72 hrs by MTS assay; format: functional, cell-based; conditions: OCI-AML-3, 72 h

Q: For `CCN1CCN(c2cnc(Nc3cc4c(cn3)ncc(=O)n4-c3ccc(N)cc3)cc2C)CC1`, which IC50 (MV4-11) is on record?
A: Its IC50 is 31 nM.

Q: What about the IC50 [1] of the same compound?
A: Its IC50 is 102 nM.

Q: And the IC50 (MOLM-13)?
A: Its IC50 is 230 nM.

Q: And the IC50 [2]?
A: The IC50 was 51 nM.

Q: With `Cc1cc(Nc2cc3c(cn2)ncc(=O)n3-c2ccc(N)cc2)ncc1N1CCC(F)(F)CC1` as the compound, how does the IC50 [1] read?
A: Its IC50 is 288 nM.

Q: And the IC50 [2]?
A: The IC50 was 120 nM.

Q: Which results are given for `CN1CCN(c2ccc(Nc3ccc4ncc(=O)n(-c5ccc(N)cc5)c4n3)nc2)CC1`?
A: IC50 [1]: 2540 nM; IC50 [2]: 6590 nM

Q: With `CN1CCN(c2ccc(Nc3cc4c(cn3)ncc(=O)n4-c3cccc(N)c3)nc2)CC1` as the compound, how does the IC50 [1] read?
A: The IC50 was 915 nM.

Q: What about the IC50 [2] of the same compound?
A: The IC50 was 730 nM.

Q: With `Cc1cc(Nc2cc3c(cn2)ncc(=O)n3-c2ccc(N)cc2)ncc1N1CCSCC1` as the compound, how does the IC50 (MV4-11) read?
A: The IC50 was 98 nM.

Q: What about the IC50 [1] of the same compound?
A: The IC50 was 185 nM.

Q: What about the IC50 (MOLM-13) of the same compound?
A: Its IC50 is 881 nM.

Q: What about the IC50 [2] of the same compound?
A: Its IC50 is 89 nM.

Q: For `CC(=O)Nc1ccc(-n2c(=O)cnc3cnc(Nc4ccc(N5CCN(C)CC5)cc4)cc32)cc1`, which IC50 [1] is on record?
A: Its IC50 is 2720 nM.

Q: What about the IC50 [2] of the same compound?
A: The IC50 was 2440 nM.

Q: With `Cc1cc(Nc2cc3c(cn2)ncc(=O)n3-c2ccc(N)cc2)ncc1N1CCNCC1` as the compound, how does the IC50 (MV4-11) read?
A: Its IC50 is 26 nM.

Q: And the IC50 (BaF3 [3])?
A: The IC50 was 3100 nM.

Q: And the IC50 (BaF3 [4])?
A: The IC50 was 163 nM.

Q: And the IC50 [1]?
A: Its IC50 is 102 nM.

Q: And the IC50 (BaF3 [5])?
A: The IC50 was 3130 nM.

Q: And the IC50 (MOLM-13)?
A: The IC50 was 436 nM.

Q: And the IC50 (BaF3 [6])?
A: Its IC50 is 863 nM.

Q: What about the IC50 [2] of the same compound?
A: Its IC50 is 34 nM.

Q: And the IC50 (BaF3 [7])?
A: Its IC50 is 633 nM.

Q: With `CN1CCN(c2ccc(Nc3cc4c(cn3)ncc(=O)n4-c3ccc(N)cc3)cc2)CC1` as the compound, how does the IC50 [1] read?
A: The IC50 was 2170 nM.

Q: What about the IC50 [2] of the same compound?
A: The IC50 was 2840 nM.

Q: Which IC50 [1] does the source give for `CC(=O)N1CCN(c2cnc(Nc3cc4c(cn3)ncc(=O)n4-c3ccc(N)cc3)cc2C)CC1` here?
A: The IC50 was 166 nM.

Q: And the IC50 [2]?
A: Its IC50 is 123 nM.

Q: Which IC50 [1] does the source give for `Cc1cc(Nc2cc3c(cn2)ncc(=O)n3-c2ccc(N)cc2)ncc1N1CCC(O)CC1` here?
A: Its IC50 is 193 nM.

Q: What about the IC50 [2] of the same compound?
A: The IC50 was 156 nM.

Q: Which IC50 (MM1.S) does the source give for `Cc1cc(Nc2cc3c(cn2)ncc(=O)n3-c2ccc(N)cc2)ncc1N1CCN(C(C)C)CC1` here?
A: Its IC50 is 1580 nM.

Q: And the IC50 (MV4-11)?
A: The IC50 was 15 nM.

Q: What about the IC50 (HCC1954) of the same compound?
A: The IC50 was 11600 nM.

Q: What about the IC50 (BaF3 [3]) of the same compound?
A: The IC50 was 131 nM.

Q: What about the IC50 (BaF3 [4]) of the same compound?
A: The IC50 was 8 nM.

Q: And the inhibition [8]?
A: The inhibition was “Active”.

Q: What about the IC50 (WI-38) of the same compound?
A: The IC50 was 16600 nM.

Q: What about the inhibition [9] of the same compound?
A: The inhibition was “Dose-Dependent Effect”.

Q: And the remaining at 1.5 h, 100 µM [10]?
A: The remaining at 1.5 h, 100 µM was > 80%.

Q: What about the IC50 at 72 h [11] of the same compound?
A: Its IC50 at 72 h is 3270 nM.

Q: And the inhibition [12]?
A: The inhibition was 100%.

Q: And the IC50 [1]?
A: Its IC50 is 62 nM.

Q: What about the IC50 (KG-1) of the same compound?
A: Its IC50 is 2460 nM.

Q: What about the IC50 (Rec1) of the same compound?
A: The IC50 was 3920 nM.

Q: What about the IC50 (BaF3 [5]) of the same compound?
A: Its IC50 is 136 nM.

Q: What about the IC50 (MOLM-13) of the same compound?
A: Its IC50 is 132 nM.

Q: What about the IC50 (BaF3 [6]) of the same compound?
A: Its IC50 is 40 nM.

Q: What about the inhibition [13] of the same compound?
A: Its inhibition is “Dose-Dependent Effect”.

Q: And the inhibition [14]?
A: The inhibition was “Dose-Dependent Effect”.

Q: What about the IC50 [2] of the same compound?
A: The IC50 was 30 nM.

Q: What about the IC50 (MOLT-4) of the same compound?
A: The IC50 was 4330 nM.

Q: And the IC50 [15]?
A: Its IC50 is 1090 nM.

Q: What about the inhibition [16] of the same compound?
A: Its inhibition is 100%.

Q: What about the IC50 (JeKo-1) of the same compound?
A: The IC50 was 1520 nM.

Q: What about the IC50 (HL-60) of the same compound?
A: The IC50 was 6500 nM.

Q: What about the IC50 (RS4-11) of the same compound?
A: Its IC50 is 1400 nM.

Q: And the IC50 (Z-138)?
A: The IC50 was 1440 nM.

Q: And the IC50 (BaF3 [7])?
A: The IC50 was 26 nM.

Q: What about the IC50 (OCI-AML-3) of the same compound?
A: Its IC50 is 6440 nM.

Q: With `CN1CCN(c2ccc(Nc3cc4c(cn3)ncc(=O)n4-c3ccc(N)cc3)nc2)CC1` as the compound, how does the IC50 [1] read?
A: Its IC50 is 599 nM.

Q: What about the IC50 [2] of the same compound?
A: The IC50 was 653 nM.
